In US20200010910A1, “Cytotoxic Chemotherapy-Based Predictive Assays for Acute Myeloid Leukemia” (The Regents of The University of California, priority 2017, published 2020):

How the values were obtained:
5637R [1] = test: CellTiter 96 Aqueous cell proliferation assay; type: cell-based; settings: Homo sapiens, 72 hr continuous treatment
Source text: (§1) Correlation of IC50 to the AML induction drugs Dox and Ara-C were first performed with the adherent bladder cancer cell lines 5637 and 5637R for cytarabine and with the adherent ovarian cancer cell lines A2780 and A2780ADR for doxorubicin. Cell lines 5637 and 5637R (Ara-C resistant) have been described previously (20). A2780 and A2780ADR (doxorubicin resistant) were purchased from Sigma-Aldrich and grown as recommended. IC50 values were obtained by plating 4000 cells per well in 96-well plates the night before treatment, and then allowing the cells to adhere over night. Leukemia cell lines capable of continuous proliferation in suspension and having differential sensitivities to Dox and Ara-C were also obtained for correlation analysis. MV-4-11 (acute monocytic leukemia) and THP-1 (acute monocytic leukemia) human cell lines were purchased from American Type Culture Collection (ATCC, Manassas, Va.). MOLM-13 (acute myeloid leukemia) human cells were purchased from AddexBio (San Diego, Calif.). For leukemia cell lines (suspension cultures), approximately 8,000-11,000 cells were seeded per well in 96-well plates the day of treatment. MV-4-11 cells were grown in IMDM (Iscove's Modified Dulbecco's Media) with 10% FBS, 100 U/ml penicillin, and 100 μg/ml streptomycin. THP-1, A2780, and A2780ADR cells were grown in RPMI-1640 media with 10% FBS, 100 U/ml penicillin, and 100 μg/ml streptomycin. 5637, 5637R, and MOLM-13 cells were grown in RPMI-1640 media with 20% FBS, 100 U/ml penicillin, and 100 μg/ml streptomycin. All cells were cultured at 37° C. in a humidified incubator. The cells were then incubated with increasing doses of cytarabine or doxorubicin continuously for 72 hours. IC50 values were determined using the CellTiter 96 Aqueous Non-Radioactive Cell Proliferation Assay (Promega). […] As shown, 5637 and 5673R have differential sensitivity to cytarabine, while A2780 and A2780ADR have differential sensitivity to doxorubicin. The leukemic suspension cell lines also have differential sensitivity to these two drugs.

5637 [2] = test: CellTiter 96 Aqueous cell proliferation assay; type: cell-based; settings: Homo sapiens, 72 hr continuous treatment
Source text: as §1

MOLM-13 [3] = test: CellTiter 96 Aqueous cell proliferation assay; type: cell-based; settings: Homo sapiens, 72 hr continuous treatment
Source text: as §1

MV-4-11 = test: CellTiter 96 Aqueous cell proliferation assay; type: cell-based; settings: Homo sapiens, MV4-11, 72 hr continuous treatment
Source text: as §1

THP-1 [4] = test: CellTiter 96 Aqueous cell proliferation assay; type: cell-based; settings: Homo sapiens, 72 hr continuous treatment
Source text: as §1

[5] = test system: 5637 and 5637R bladder cancer cell lines; test: cytarabine-DNA adducts by AMS, CIV and bolus type treatment; type: cell-based, human; settings: low dose or high dose; CIV and bolus treatment regimens
Procedure: Sensitive and resistant bladder cancer cells were treated with Ara-C in culture. Two treatment conditions were used, one to mimic clinically continuous infusion (CIV) and one to mimic clinically bolus infusion (bolus infusions use a much higher Ara-c dose). The day before treatment, one million bladder cancer cells were seeded in 60-mm dishes and allowed to attach overnight. To simulate CIV treatment, the bladder cancer cell lines were exposed in growth medium with a low (10 nM) or a high (1 μM) dose of ARA-C supplemented with 8 nM ^14C-labeled ARA-C(1000 dpm/mL-20-0.4 mCi/mmol specific activity (Moravek Biochemicals, Inc.) over 24 h (FIG. 25A). At 24 hrs, the cells were harvested and washed for subsequent DNA isolation using the Wizard Genomic DNA Purification Kit. To simulate bolus treatment, the bladder cancer cell lines were exposed in growth medium with a low dose (3 μM) or a high dose ([…]; a highly toxic concentration for these cell lines) supplemented with 0.8 nM ^14C-labeled ARA-C (0.0001 mCi/mmol specific activity) for 4 h, followed by 20 h in drug-free media (FIG. 25B). After a 4-hour incubation, the cells were washed three times with PBS and cultured in drug-free media for an additional 20 hours. DNA from cells isolated at 24 hours was then purified. […] The ratios of ^14C to total C were measured by AMS, and drug-DNA adducts per ten million nucleotides were calculated.

MOLM-13 [6] = test: ARA-C incorporation into DNA by AMS; type: cell-based, human; settings: MOLM-13 (most sensitive); 1.6 nM or 16 nM ARA-C 24 hrs
Procedure: (§2) MV-4-11, THP-1, and MOLM-13 cells are human, immortalized, myelogenous leukemia cell lines that proliferate continuously in suspension. These cell lines serve as a cell culture model for AML. Suspension cultures consisting of two million cells in […] culture dishes were treated with ARA-C for 24 hrs (to simulate CIV) prior to DNA isolation. The cultures were dosed with a low (1.6 nM) or a high (16 nM) dose of ARA-C supplemented with 0.8 nM ^14C-labeled ARA-C (100 dpm/mL, 2.4-16.7 mCi/mmol specific activity), and isolated DNA was analyzed by AMS to determine drug-DNA adduct levels. The suspension cell lines were dosed in primary cell media (IMDM+20% BIT9500 serum substitute, 20 ng/mL IL-3, 10 ng/mL IL-6, 20 ng/mL G-CSF, 20 ng/mL GM-CSF, 50 ng/mL SCF) to mimic the dosing conditions that will be used for patient-derived AML samples. This media is used for short term culturing of primary AML cells that are previously collected from patients, frozen and stored in a biobank.

THP-1 [7] = test: ARA-C incorporation into DNA by AMS; type: cell-based, human; settings: THP-1 (least sensitive); 1.6 nM or 16 nM ARA-C 24 hrs
Procedure: as §2

5637 [8] = test: MTT assay IC50, bladder cancer cell line; type: cell-based, human; settings: 72 hours
Procedure: Thus, we measured the IC50 of the six NSCLC cell lines from Example 2 to both cisplatin and carboplatin to determine if the sensitivity of these six NSCLC cell lines to the two drugs are correlated.
(§3) Drug-DNA adduct formation and repair was measured by accelerator mass spectrometry.
(§4) These two cell lines were also cultured with a range of concentrations of cisplatin, carboplatin, gemcitabine, doxorubicin, methotrexate and vinblastine for 72 hours to determine IC50 for these other drugs (FIG. 16C). These drugs were chosen because of their frequent use in the treatment of bladder cancer.

5637R [9] = test: MTT assay IC50, oxaliplatin-resistant bladder cancer sub-line; type: cell-based, human
Procedure: as §3
To confirm that 5637 was the original ATCC cell line, and that 5637R originated from the parental 5637 cell line, both cultures were sent to the ATCC Cell Line Authentication Service for cell verification per the ATCC protocol. More specifically, fifteen short tandem repeat (STR) loci plus the gender determining locus, amelogenin, were amplified using the commercially available PowerPlex® 16HS Kit from Promega.
as §4

[10] = test system: five bladder cancer cell lines (5637, T24, TCCSUP, HT1197, and J82); test: oxaliplatin-DNA adducts by AMS in cell culture; type: cell-based; settings: 4 hours
Procedure: Cells were seeded in 60-mm dishes at a density of 1×10^6 cells/dish and allowed to attach overnight in a 37° C. humidified atmosphere containing 5% C02. […] The cells were then washed twice with phosphate-buffered solution (PBS) and maintained thereafter with oxaliplatin-free culture media. DNA was harvested at hours 0, 2, 4, 8, 24 hours using the modified Wizard procedure described previously. Ten micrograms of DNA per sample was converted to graphite and measured by AMS for ^14C quantification. Triplicate sets of AMS experiments were performed and the data was plotted as time vs oxaliplatin-DNA adducts per 10^8 nt. […] Oxaliplatin-DNA monoadducts could be detected in all cell lines at all time points. […] Therefore, drug-DNA damage from microdoses of oxaliplatin are predictive of the extent of DNA modification caused by the therapeutic dose in cell culture.

5637R [11] = test: oxaliplatin-DNA adduct formation and repair by AMS; type: cell-based, human
Procedure: (§5) To characterize the oxaliplatin-DNA adduct frequency in these cell lines, cells from each cell line were seeded in 60-mm dishes at a density of 1×10^6 cells/dish and allowed to attach overnight in a 37° C. humidified atmosphere containing 5% CO2. […] The cells were then washed twice with phosphate-buffered solution (PBS) and maintained thereafter with oxaliplatin-free culture media. DNA was harvested at hours 0, 2, 4, 8, 24, 28 and 48 hours using a Promega Wizard DNA Purification Kit. Ten micrograms of DNA per sample was converted to graphite and measured by AMS for ^14C quantification. Triplicate sets of AMS experiments were performed and the data was plotted as time vs oxaliplatin-DNA adducts per 10^8 nt.

5637 [12] = test: oxaliplatin-DNA adduct formation and repair by AMS; type: cell-based, human
Procedure: as §5

[13] = human plasma pharmacokinetics of [14C]oxaliplatin microdose; type: in vivo; settings: metastatic breast cancer patient; IV microdose
Procedure: Peripheral blood specimens were drawn into BD Vacutainer CPT™ tubes with sodium heparin from the other arm at specific time points before and after the administration of the microdose. Plasma samples collected at −5 min, 5 min, 15 min, 30 min, 2 h, 4 h, 8 h, 24 h, and 48 h post microdose injection were analyzed by liquid scintillation counting (FIG. 17A).

PBMC = test: microdose-induced oxaliplatin-DNA adducts in patients; type: in vivo, human
Procedure: The plasma samples were additionally processed to isolate PBMC, and the DNA was extracted and analyzed using AMS to calculate the oxaliplatin-DNA adduct frequency (both monoadducts and diadducts combined) (FIG. 17B). […] These adduct levels then decrease substantially out to 48 hours post microdosing. […] Overall, the plasma PK and time course of oxaliplatin-DNA adduct formation and repair in PBMC allowed determination of the best time to dose patients prior to biopsy in order to maximize the oxaliplatin-DNA adduct formation, allow for repair in those patients with high repair capacity, minimize the risk of radioactive contamination of PBMC and tumor samples, and also minimize the risk of radioactive contamination of the operating room by blood-borne radiocarbon.
Plasma samples were collected, filtered, and counted by liquid scintillation counting to determine plasma oxaliplatin levels. […] The range of microdose-induced adduct levels (frequencies) for the three colorectal patients was 0.1-6 adducts per 10^8 nt.

[14] = test system: tumor biopsy sample from the bone marrow; test: microdose-induced oxaliplatin-DNA adducts in patient tumor biopsy; type: in vivo, human; settings: metastatic breast patient; 48 hours post microdose; n=2 repeats
Procedure: Therefore, a tumor biopsy sample from the bone marrow of this same metastatic breast patient was collected 48 hours post microdose administration and analyzed by AMS for oxaliplatin-DNA adducts. […] Therefore, in one embodiment, a useful range of oxaliplatin-DNA adduct frequency after microdosing is 0.5-50 adducts per 10^8 nt.

[15] = sterile solution in water, storage at −20° C.
Procedure: Radiolabeled carboplatin containing C^14 carbon atoms in the cyclobutane dicarboxylic acid group was formulated for human use as a sterile, pyrogen free solution at 5 mg/mL in water.

[16] = chemotherapy; cited from earlier work
[17] = safety of radiolabeled microdose in patients; settings: IV microdose, 1% of the therapeutic dose
Procedure: Microdoses of the [^14C]Carboplatin were administered to human cancer patients as a diagnostic reagent, followed by full dose platinum-based chemotherapy and evaluation of response. Within four weeks of the [^14C]carboplatin microdose, these patients received standard of care chemotherapy for their disease, which included either carboplatin or cisplatin. The patient population consisted of non-small cell lung cancer patients (NSCLC), stage IV with measurable lesions, and bladder transitional cell carcinoma (TCC) patients, stage II disease and above for neoadjuvant treatment, or stage III and IV metastatic disease with measurable lesions for palliative chemotherapy. Patients were identified for this study as having measurable lesions using the Response Evaluation Criteria in Solid Tumor (RECIST), an Eastern Cooperative Oncology Group performance status of <2, and adequate bone marrow and vital organ function. PBMC and tumor tissue were collected from the patients for analysis of carboplatin-DNA monoadduct frequencies. Toxicity of the [^14C]carboplatin diagnostic reagent administered as a microdose was assessed using Common Terminology Criteria for Adverse Events (CTCAE). Toxicities of grade 3 and above were also collected for patient specific toxic response to full dose chemotherapy for correlation analysis to carboplatin-DNA monoadduct frequency. Patient response to chemotherapy was evaluated using the RECIST for correlation to carboplatin-DNA monoadduct frequency.
The dose of carboplatin in the diagnostic microdose was chosen to be sub-toxic and non-therapeutic, to minimize patient chemical and radiation exposure, and to result in AMS measurable carboplatin-DNA monoadducts. Nineteen patients have been administered at least one microdose of [^14C]carboplatin via IV infusion as a diagnostic reagent. Patient toxicity related to the microdose was monitored from the time of IV microdose until the patients received their first chemotherapy. […] The total radioactive dose given to a 75 kg patient after an IV microdose of [^14C]carboplatin is calculated to be 338 μCi. […]

[18] = 24 hour culture without oxaliplatin

Nc1ccn([C@@H]2O[C@H](CO)[C@@H](O)[C@@H]2O)c(=O)n1 [cytarabine]
IC50 (5637R [1]): 60.1 µM
IC50 5637 [2]: 5.69 µM
IC50 (MOLM-13 [3]): 0.018 µM
IC50 (MV-4-11): 0.353 µM
IC50 (THP-1 [4]): 4.4 µM
cytarabine-DNA adducts in resistant 5637R compared to parent 5637 [5]: fewer cytarabine-DNA adducts
levels of ARA-C incorporation among three AML cell lines (MOLM-13 [6]): highest levels of ARA-C incorporation
levels of ARA-C incorporation among three AML cell lines (THP-1 [7]): lowest levels of ARA-C incorporation

O=C1[O][Pt]2([NH][C@@H]3CCCC[C@H]3[NH]2)[O]C1=O [oxaliplatin]
IC50 5637 [8]: 2.45 µM
increase of IC50 of 5637R compared to parental 5637 (5637R [9]): approximately 10 fold
IC50 (5637R [9]; 5637R, 72 hours): 27.3 µM
DNA damage concentrations (oxaliplatin-DNA adducts) ([10]; microdose 0.1 μM oxaliplatin): 50-100 adducts per 10^8 nt
DNA damage concentrations (oxaliplatin-DNA adducts) ([10]; therapeutic dose 10 μM oxaliplatin): 5,000-10,000 adducts per 10^8 nt
oxaliplatin-DNA adducts at 24 hours (5637R [11]; 10 μM for 24 hours): 259.2±37.3 adducts per 10^8 nucleotide
repair rate (5637R [11]; [18]): 3.48±0.15 adducts per 10^8 nucleotide-hour
area under curve (AUC) of oxaliplatin-DNA adducts (5637R [11]; 48 hour study period): 9,426±2457 adducts per 10^8 nucleotide-hour
oxaliplatin-DNA adducts at 24 hours (5637 [12]; 10 μM for 24 hours): 710.0±32.2 adducts per 10^8 nucleotide
repair rate 5637 [12, 18]: 1.34±0.30 adducts per 10^8 nucleotides-hour
area under curve (AUC) of oxaliplatin-DNA adducts (5637 [12]; 48 hour study period): 27,720±2,985 adducts per 10^8 nucleotide-hour
T1/2 (α), first (fast) phase [13]: 13.3 min
maximum oxaliplatin-DNA adducts in PBMC (PBMC; metastatic breast cancer patient, first 4 hours after microdose): 8 adducts per 10^8 nt
range of microdose-induced adduct levels (frequencies) (PBMC; three colorectal patients, PBMC): 0.1-6 adducts per 10^8 nt
oxaliplatin-DNA adduct frequency [14]: 14.6±4.9 per 10^8 nt
loss of radiopurity per year [15]: < 2%
peak human oxaliplatin plasma concentration during chemotherapy [16]: 10 µM
clinical side effects [17]: None of the clinical side effects associated with standard therapeutic doses of oxaliplatin were observed
